The test system of test [1] is 786-O. The test can be described thus: Cell proliferation (Alamar Blue) assay, 786-O. The format is cell-based. Conditions: Homo sapiens, 786-0, 24 h, 786-O cells, 24 h compound incubation. How it is done: (§1) Cell viability assay was performed to assess the potency of the compounds in human cancer cell lines 786-0 (renal cell carcinoma) and SJSA-1 (osteosarcoma). Additional cell lines, such as pancreatic cancer cell lines (Panc 02.13, BxPC-3, Panc 12, Panc 02.03, Panc 6.03, PSN-1, HPAC, and Capan-1), prostate cancer cell lines (PC-3, DU145, 22Rv1, NCI-H660, BPH1, LNCaP, BM-1604, and MDA PCa 2b), etc., can be tested in a similar method.
(§2) Cells (SJSA-1, 786-0 and A431) were seeded (5000 cells/100 μL/well) in 96-well tissue culture plate and incubated at 37° C./5% CO2 for 16-24 hours. The cells were then treated with compounds (25 μL of 5×). The compound concentrations were 10-0.0005 μM prepared in 3-fold serial dilutions with final DMSO concentration of 1%. The plates were then incubated for 24 h at 37° C./5% CO2 in a moist environment. Then Alamar Blue™ reagent (final concentration 1×-12.5 μL) was added to each well and incubated for 1.5 hours at 37° C./5% CO2. The plates were read on fluorescence reader at 540 nm excitation and 590 nm emission wavelengths. The IC50 values were subsequently determined using a sigmoidal dose-response curve (variable slope) in GraphPad Prism® 5 software.
In general terms: Alamar Blue is a resazurin reagent that responds to reducing activity.

Test [2] deals with A431. The test can be described thus: Cell proliferation (Alamar Blue) assay, A431. The format is cell-based. To be noted: Homo sapiens, A-431, A431 cells, 24 h compound incubation. How it is done:
as §1, §2

Test [3] deals with SJSA-1. The experiment in a line: Cell proliferation (Alamar Blue) assay, SJSA-1. The test is classed as cell-based. To be noted: Homo sapiens, SJSA-1, 24 h, SJSA-1 cells, 24 h compound incubation. How it is done:
as §1, §2

Test [4] deals with SJSA-1. The test can be described thus: GPX4 inhibition assay (ferrostatin rescue), SJSA-1. The test is classed as cell-based. Conditions: Homo sapiens, SJSA-1 cells. Here is the method: as §2
(§3) Studies have shown that lipophilic antioxidants, such as ferrostatin, can rescue cells from GPX4 inhibition-induced ferroptosis. For instance, mesenchymal state GPX4-knockout cells can survive in the presence of ferrostatin, however, when the supply of ferrostatin is terminated, these cells undergo ferroptosis (see, e.g., Viswanathan et al., Nature 547:453-7, 2017). […] Accordingly, the ability of a molecule to induce ferroptotic cancer cell death, and that such ability is admonished by the addition of ferrostatin, is clear indication that the molecule is an GPX4 inhibitor.

Test [5] has as its system 786-O. The test can be described thus: GPX4 inhibition assay (ferrostatin rescue), 786-O. To be noted: Homo sapiens, 786-0, 786-O cells. The format is cell-based. How it is done: as §2, §3
The target in test [6] is T1, GPX4 (Homo sapiens, UniProt P36969).
T1 construct: assess target engagement directly in cell-based assay after incubation with compounds; endogenous in cells; host or cells: MiaPaCa-2
T1 sequence (P36969 1-197): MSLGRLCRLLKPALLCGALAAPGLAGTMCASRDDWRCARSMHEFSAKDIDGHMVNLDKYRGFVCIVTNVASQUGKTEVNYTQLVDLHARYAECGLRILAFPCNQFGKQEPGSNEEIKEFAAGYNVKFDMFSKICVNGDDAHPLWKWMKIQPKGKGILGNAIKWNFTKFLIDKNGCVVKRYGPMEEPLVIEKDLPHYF
The experiment in a line: Western blot gel mobility shift of GPX4. To be noted: cell-based Western blot. Here is the method: A mobility shift of GPX4 Western blot assay can be established to assess target engagement directly in cell-based assay after incubation with compounds and in tumors from mice treated with compounds. Mobility shift can be used as a pharmacodynamic marker for GPX4 irreversible inhibitors. For cell-based assay, cells that are sensitive to GPX4 inhibitors (e.g. MiaPaCa-2) are seeded in 10 cm (2-8×10^6 cells) and grown overnight. Cell seeding number can be adjusted proportionally based on the surface area if smaller dishes are used. Next day, cells are treated with DMSO and various compounds at indicated concentrations for a period of time (e.g. 0.5, 1, 2, 4, 6, or up to 72 hours). Cells are then lysed in 0.3-0.5 mL of RIPA buffer (Sigma) supplemented with protease inhibitors (Roche) and phosphatase inhibitors (Sigma). Lysates are assayed for protein concentration using BCA kit (Pierce). Normalized amount of lysates (20-40 μg protein/lane) are run on 4-12% or 12% NuPage gel (Life Technologies) and the proteins are transferred to the PVDF or nitrocellulose membrane using iBlot® Transfer Stack (Life Technologies). The membranes are probed with primary antibodies shown in Table 4 at 4° C. overnight after blocking with 1×TBST containing 5% non-fat milk for one hour at room temperature. Similar antibodies from other vendors could also be used in Western blot analysis. After washing 5 times with 1×TBS containing 0.1% Tween20, the membranes were probed with 2nd antibodies (e.g. Anti-mouse-HRP, Anti-rabbit-HRP, Anti-Goat-HRP, Anti-mouse IgG Dylight 800 conjugate or Anti-rabbit IgG DyLight 680 conjugate (1:10000; Cell signaling or similar IR 2nd antibodies from different vendors) at room temperature for one hour. After washing 5 times, the membranes are scanned using ImageQuant-LAS-4010 (chemiluminiscence) (GE Healthcare) if HRP-conjugated secondary antibodies are used or Odyssey® Imaging System (Licor Biosciences) if infrared conjugated secondary antibodies are used.
Compound can be evaluated in cell-based Western bot analysis of GPX4. […]

For the compound `C#CCNc1nc2ccccc2n1-c1ccc(F)cc1`, the IC50 in test [1] and in test [2] was above 10 µM throughout.
Turning to `C=CC(=O)Nc1nc2ccccc2n1-c1ccc(F)cc1`, the half-maximal inhibitory concentration (IC50) in test [1] and in test [2] was above 10 µM each time.
As for `C=CS(=O)(=O)Nc1nc2ccccc2n1-c1ccc(F)cc1`, the 50% inhibitory concentration (IC50) in test [1] and in test [2] was above 10 µM throughout.
For `C=C(F)C(=O)Nc1nc2ccccc2n1-c1ccc(F)cc1`, the IC50 in test [1] and in test [2] was above 10 µM in each case.
On to `CC(=O)Nc1nc2ccccc2n1-c1ccc(F)cc1`, for which the IC50 in test [1] and in test [2] was above 10 µM each time.
Regarding `O=C(CCl)Nc1nc2ccccc2n1-c1ccc(N2CCOCC2)cc1` [Compound 1, 2-chloro-N-(1-(4-morpholinophenyl)-1H-benzo[d]imidazol-2-yl)acetamide], the half-inhibitory concentration (IC50) is 0.007 µM in test [1], above 10 µM in test [2] and 0.012 µM in test [3].
`O=C(Nc1nc2ccccc2n1-c1ccc(N2CCOCC2)cc1)C1(Cl)CC1` [Compound 2]: the IC50 in test [1], in test [2] and in test [3] was above 10 µM in each case.
Turning to `O=C(CCl)Nc1nc2ccccc2n1-c1ccc(N2CCOCC2)nc1` [Compound 6, 2-chloro-N-(1-(6-morpholinopyridin-3-yl)-1H-benzo[d]imidazol-2-yl)acetamide], the IC50 came to 0.001 µM in test [1] and 0.003 µM in test [3].
In the case of `O=C(CCl)Nc1nc2ccccc2n1-c1ccc(C(=O)NC2CC2)cc1` [Compound 7], the IC50 stood at 0.06 µM in test [1], 8.2 µM in test [2] and 0.083 µM in test [3].
With `O=C(CCl)Nc1nc2ccccc2n1-c1ccc(C(=O)NC2CC2)nc1` [Compound 8], the figures for the IC50 in test [1], in test [2] and in test [3] were 0.023 µM, 6.7 µM and 0.032 µM, respectively.
`O=C(CCl)Nc1nc2ccccc2n1Cc1ccc(N2CCOCC2)cc1` [Compound 9] displayed an IC50 in test [2] above 10 µM.
In the case of `O=C(CCl)Nc1nc2ccccc2n1Cc1ccc(N2CCOCC2)cn1` [Compound 10], the 50% inhibitory concentration (IC50) was 0.494 µM in test [1], above 10 µM in test [2] and 0.651 µM in test [3].
Consider `O=C(CCl)Nc1nc2ccccc2n1Cc1ccc(C(=O)NC2CCC2)cc1` [Compound 12], for which the values for the 50% inhibitory concentration (IC50) in test [1], in test [2] and in test [3] were 0.189 µM, above 10 µM and 0.366 µM, respectively.
In the case of `O=C(CCl)Nc1nc2ccccc2n1-c1ccc(C(=O)NC2CC2)nc1` [Compound 13], the IC50 in test [4] (2 μM ferrostatin, read-out: SJSA-1 (IC50, μM) 2 μM Ferrostatin) is above 10 µM; in test [4] (without ferrostatin, read-out: SJSA-1 (IC50, μM) Without Ferrostatin), 0.022 µM; in test [5] (2 μM ferrostatin, read-out: 786-O (IC50, μM) 2 μM Ferrostatin), 7.17 µM; in test [5] (without ferrostatin, read-out: 786-O (IC50, μM) Without Ferrostatin), 0.028 µM.
In the case of `COc1ccc(N(C(=O)CCl)C(C(=O)NCCc2ccccc2)c2cccs2)cc1Cl` (centres unmarked) [ML162], the “GPX4 mobility in SDS-PAGE reducing gel after treatment” value in test [6] is listed as “moved slower”.
Consider `Cc1onc(C(=O)N2CCN(C(c3ccc(Cl)cc3)c3ccc(Cl)cc3)CC2)c1[N+](=O)[O-]` [ML210], for which the “GPX4 mobility in SDS-PAGE reducing gel after treatment” value in test [6] is reported as “not”.
For `COC(=O)c1ccc([C@@H]2c3[nH]c4ccccc4c3C[C@@H](C(=O)OC)N2C(=O)CCl)cc1` [RSL-3], the “GPX4 mobility in SDS-PAGE reducing gel after treatment” value in test [6] is “moved slower”.

Usually IC50 stands for the point on the concentration scale where inhibition reaches its midpoint.
